Assay results: ChEMBL document CHEMBL2021815, “Metabolism of 4-Aminopiperidine Drugs by Cytochrome P450s: Molecular and Quantum Mechanical Insights into Drug Design” (ACS Med Chem Lett, 2011)

Key:
Type in all cases: ADME, Microsome
[1] = target: CYP2D6 (Homo sapiens, UniProt P10635); assay: Half life in human liver microsomes assessed as CYP2D6-mediated parent compound depletion at 1 uM
[2] = target: T1, CYP2B6 (Homo sapiens, UniProt P20813); assay: Half life in human liver microsomes assessed as CYP2B6-mediated parent compound depletion at 1 uM
T1 sequence (P20813 whole entry): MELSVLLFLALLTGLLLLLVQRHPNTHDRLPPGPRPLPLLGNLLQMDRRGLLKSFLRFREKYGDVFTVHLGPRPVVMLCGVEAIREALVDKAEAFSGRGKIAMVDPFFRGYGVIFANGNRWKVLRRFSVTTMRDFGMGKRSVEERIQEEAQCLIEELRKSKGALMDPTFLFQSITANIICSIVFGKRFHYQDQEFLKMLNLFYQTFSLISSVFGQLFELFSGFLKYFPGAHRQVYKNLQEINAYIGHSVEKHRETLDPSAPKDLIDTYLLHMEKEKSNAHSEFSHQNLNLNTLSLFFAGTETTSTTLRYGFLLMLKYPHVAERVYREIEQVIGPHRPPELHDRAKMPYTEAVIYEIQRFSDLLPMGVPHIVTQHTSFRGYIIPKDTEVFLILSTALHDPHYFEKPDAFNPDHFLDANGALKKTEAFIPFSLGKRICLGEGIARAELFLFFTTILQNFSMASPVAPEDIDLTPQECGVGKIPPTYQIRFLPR

[3] = target: T2, CYP2C8 (Homo sapiens, UniProt P10632); assay: Half life in human liver microsomes assessed as CYP2C8-mediated parent compound depletion at 1 uM
T2 sequence (P10632 whole entry): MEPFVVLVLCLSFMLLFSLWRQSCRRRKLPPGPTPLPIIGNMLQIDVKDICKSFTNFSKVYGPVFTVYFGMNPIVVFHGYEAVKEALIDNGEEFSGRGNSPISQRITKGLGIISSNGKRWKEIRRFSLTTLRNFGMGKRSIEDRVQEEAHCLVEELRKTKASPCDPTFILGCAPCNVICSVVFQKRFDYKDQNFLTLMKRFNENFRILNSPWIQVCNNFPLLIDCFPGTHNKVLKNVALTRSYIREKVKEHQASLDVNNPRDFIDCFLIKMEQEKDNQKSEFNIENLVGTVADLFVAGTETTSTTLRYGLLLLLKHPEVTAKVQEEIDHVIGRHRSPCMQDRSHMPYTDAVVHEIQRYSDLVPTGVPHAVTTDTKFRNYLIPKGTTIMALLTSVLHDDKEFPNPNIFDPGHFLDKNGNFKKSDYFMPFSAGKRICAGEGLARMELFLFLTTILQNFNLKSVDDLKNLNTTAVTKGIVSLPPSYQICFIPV

[4] = target: CYP2C9 (Homo sapiens, UniProt P11712); assay: Half life in human liver microsomes assessed as CYP2C9-mediated parent compound depletion at 1 uM
[5] = target: CYP2C19 (Homo sapiens, UniProt P33261); assay: Half life in human liver microsomes assessed as CYP2C19-mediated parent compound depletion at 1 uM
[6] = target: T3, CYP1A2 (Homo sapiens, UniProt P05177); assay: Half life in human liver microsomes assessed as CYP1A2-mediated parent compound depletion at 1 uM
T3 sequence (P05177 whole entry): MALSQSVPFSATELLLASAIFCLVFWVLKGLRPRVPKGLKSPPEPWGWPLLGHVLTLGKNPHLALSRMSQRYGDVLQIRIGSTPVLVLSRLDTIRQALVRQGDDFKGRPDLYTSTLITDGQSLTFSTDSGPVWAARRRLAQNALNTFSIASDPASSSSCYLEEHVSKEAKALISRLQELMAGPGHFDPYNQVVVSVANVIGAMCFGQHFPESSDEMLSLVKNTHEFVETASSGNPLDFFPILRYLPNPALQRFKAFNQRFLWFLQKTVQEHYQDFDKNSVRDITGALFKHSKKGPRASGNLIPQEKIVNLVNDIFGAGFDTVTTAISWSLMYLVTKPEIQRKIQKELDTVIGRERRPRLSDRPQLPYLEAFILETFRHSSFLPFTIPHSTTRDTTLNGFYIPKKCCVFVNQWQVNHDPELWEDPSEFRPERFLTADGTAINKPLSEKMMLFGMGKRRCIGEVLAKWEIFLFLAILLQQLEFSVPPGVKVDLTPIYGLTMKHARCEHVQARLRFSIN

[7] = test system: Liver microsomes; assay: Clearance in human liver microsomes at 1 uM
[8] = target: CYP3A4 (Homo sapiens, UniProt P08684); assay: Half life in human liver microsomes assessed as CYP3A4-mediated parent compound depletion at 1 uM
Sequence of CYP3A4 (P08684 whole entry): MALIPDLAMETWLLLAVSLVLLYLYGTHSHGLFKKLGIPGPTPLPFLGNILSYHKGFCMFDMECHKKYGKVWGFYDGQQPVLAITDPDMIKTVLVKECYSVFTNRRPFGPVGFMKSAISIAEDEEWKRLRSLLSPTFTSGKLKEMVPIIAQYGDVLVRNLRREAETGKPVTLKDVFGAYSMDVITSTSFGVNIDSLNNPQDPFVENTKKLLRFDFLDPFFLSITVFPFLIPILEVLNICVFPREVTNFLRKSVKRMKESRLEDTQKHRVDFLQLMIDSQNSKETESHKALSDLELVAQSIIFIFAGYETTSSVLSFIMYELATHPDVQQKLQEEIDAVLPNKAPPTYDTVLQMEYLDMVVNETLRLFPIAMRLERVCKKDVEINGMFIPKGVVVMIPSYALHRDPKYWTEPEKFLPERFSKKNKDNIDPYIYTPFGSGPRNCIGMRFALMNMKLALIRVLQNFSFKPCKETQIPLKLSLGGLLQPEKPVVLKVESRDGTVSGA

Sequence of CYP2D6 (P10635 whole entry): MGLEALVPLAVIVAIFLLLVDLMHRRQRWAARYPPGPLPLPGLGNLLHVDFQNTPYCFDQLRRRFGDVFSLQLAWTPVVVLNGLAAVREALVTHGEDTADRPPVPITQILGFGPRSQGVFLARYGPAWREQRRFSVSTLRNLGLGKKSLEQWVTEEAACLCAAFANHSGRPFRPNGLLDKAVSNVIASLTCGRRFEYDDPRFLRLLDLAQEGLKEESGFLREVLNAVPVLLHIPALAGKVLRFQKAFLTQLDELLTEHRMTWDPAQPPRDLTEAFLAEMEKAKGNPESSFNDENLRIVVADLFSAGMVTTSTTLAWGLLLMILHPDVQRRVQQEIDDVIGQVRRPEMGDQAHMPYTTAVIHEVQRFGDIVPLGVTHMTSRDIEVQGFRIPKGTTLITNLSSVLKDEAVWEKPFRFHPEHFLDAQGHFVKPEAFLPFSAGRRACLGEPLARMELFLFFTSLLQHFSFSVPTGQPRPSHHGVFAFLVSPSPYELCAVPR
Sequence of CYP2C19 (P33261 whole entry): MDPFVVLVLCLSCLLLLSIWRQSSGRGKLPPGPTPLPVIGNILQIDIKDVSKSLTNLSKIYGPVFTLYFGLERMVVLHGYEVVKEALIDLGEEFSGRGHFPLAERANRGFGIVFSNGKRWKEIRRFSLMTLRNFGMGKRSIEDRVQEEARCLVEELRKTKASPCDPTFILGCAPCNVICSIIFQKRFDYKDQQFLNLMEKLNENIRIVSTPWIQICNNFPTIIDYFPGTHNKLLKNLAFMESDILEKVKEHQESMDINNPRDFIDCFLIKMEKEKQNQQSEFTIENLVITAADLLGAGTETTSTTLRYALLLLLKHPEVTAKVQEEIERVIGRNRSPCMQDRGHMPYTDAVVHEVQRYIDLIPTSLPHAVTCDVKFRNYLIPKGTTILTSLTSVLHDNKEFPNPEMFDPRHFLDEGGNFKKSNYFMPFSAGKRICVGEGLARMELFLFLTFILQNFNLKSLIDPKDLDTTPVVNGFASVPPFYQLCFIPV
Sequence of CYP2C9 (P11712 whole entry): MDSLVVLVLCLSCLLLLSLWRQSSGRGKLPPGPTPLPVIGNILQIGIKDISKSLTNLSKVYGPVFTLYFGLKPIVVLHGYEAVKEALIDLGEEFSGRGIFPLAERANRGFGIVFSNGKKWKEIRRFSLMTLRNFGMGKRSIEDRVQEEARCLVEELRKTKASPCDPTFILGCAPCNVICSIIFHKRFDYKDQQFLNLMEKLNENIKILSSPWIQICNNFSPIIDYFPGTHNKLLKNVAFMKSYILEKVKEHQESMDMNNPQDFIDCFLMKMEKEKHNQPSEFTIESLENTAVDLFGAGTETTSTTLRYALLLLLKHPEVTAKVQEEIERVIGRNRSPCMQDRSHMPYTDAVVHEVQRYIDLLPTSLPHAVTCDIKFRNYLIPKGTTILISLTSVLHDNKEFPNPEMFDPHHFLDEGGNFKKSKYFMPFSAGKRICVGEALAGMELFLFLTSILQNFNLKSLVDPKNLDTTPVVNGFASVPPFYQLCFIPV

Structure (SMILES) | half-life at 1 µM [1] [h] | half-life at 1 µM [2] [h] | half-life at 1 µM [3] [h] | half-life at 1 µM [4] [h] | half-life at 1 µM [5] [h] | half-life at 1 µM [6] [h] | Intrinsic clearance in liver microsomes [7] [µL/min/mg] | half-life at 1 µM [8] [h] | CLH [7] [µL/min/mg]
COc1cc(N)c(Cl)cc1C(=O)NC1CCN(CCCOc2ccc(F)cc2)CC1OC (stereo unspecified) [CISAPRIDE] | > 1 | > 1 | > 1 | > 1 | > 1 | > 1 | 120.7 | – | –
CN(c1nc2ccccc2s1)C1CCN(CC(O)COc2ccc(F)cc2)CC1 (stereo unspecified) [SABELUZOLE] | 0.025 | > 1 | > 1 | > 1 | > 1 | > 1 | 37 | < 0.0833 | –
COc1cc(N)c(Cl)cc1C(=O)NC1CCN(Cc2ccccc2)CC1 [CLEBOPRIDE] | > 1 | > 1 | > 1 | > 1 | > 1 | > 1 | 50.4 | < 0.0833 | –
O=C(CCCN1CCC(n2c(O)nc3ccccc32)CC1)c1ccc(F)cc1 [BENPERIDOL] | 0.173 | > 1 | 0.73 | > 1 | > 1 | > 1 | – | 0.055 | 42
COc1ccc(CCN2CCC(Nc3nc4ccccc4n3Cc3ccc(F)cc3)CC2)cc1 [ASTEMIZOLE] | 0.0667 | > 1 | > 1 | > 1 | > 1 | > 1 | 136 | 0.025 | –
O=C(NC1CCN(CCc2c[nH]c3ccccc23)CC1)c1ccccc1 [INDORAMIN] | < 0.0833 | > 1 | > 1 | > 1 | > 1 | > 1 | 46.4 | 0.267 | –
O=c1[nH]c2ccccc2n1CCCN1CCC(n2c(=O)[nH]c3cc(Cl)ccc32)CC1 [DOMPERIDONE] | – | – | – | – | – | – | – | – | 108.6
O=c1[nH]c2ccccc2n1C1CCN(CCCC(c2ccc(F)cc2)c2ccc(F)cc2)CC1 [PIMOZIDE] | 0.0533 | > 1 | > 1 | > 1 | > 1 | > 1 | – | 0.045 | 57
